According to patent US10925881B2, “Treatment of conditions associated with hyperinsulinaemia” (Tensha Therapeutics, Inc., priority 2014, dated 2021):
pIC50: −log10 of the molar value. Where two headings read alike, the source gives them in different places.

What was measured:
RIN-14B = assay: Cell Titer-Glo rat insulinoma cell assay, RIN-14B; format: cell-based
Description: (§1) Paclitaxel was used as a positive control.
(§2) Cells were seeded at 5000 cells per well in a 96-well microculture plate in a total volume of 100 μl/well and incubated for 24 hours. […] The concentrations tested for paclitaxel were, 10 μM, 2.5 μM, 0.625 μM, 0.156 μM, 0.0391 μM, 0.00977 μM, 0.00244 μM, 0.000610 μM, 0.000153 μM, and 0.0000381 μM. Duplicate data for RIN-5F was obtained where the test concentrations for paclitaxel were, 1 μM, 0.25 μM, 0.0625 μM, 0.0156 μM, 0.00391 μM, 0.000977 μM, 0.000244 μM, 0.0000610 μM, 0.0000153 μM, and 0.00000381 μM. After 168-192 total hours of culture 100 μl of media was removed from each well and 50 μl of Cell Titer-Glo (Promega #G7571) was added to each well. The plate was shaken for 2 minutes and allowed to equilibrate for 10 minutes. Luminescence was measured on a Tecan GENios microplate reader. Percent inhibition of cell viability was calculated relative to untreated control wells. All tests were performed in triplicate or quadruplicates at each concentration level. IC50 values were calculated using Prism 6.00 curve-fitting with a four parameter-logistic equation.
(§3) Cells were seeded at 5000 cells per well in a 96-well microculture plate in a total volume of 100 μl/well and incubated for 24 hours. […] After 168-192 total hours of culture 100 μl of media was removed from each well and 50 μl of Cell Titer-Glo (Promega #G7571) was added to each well. The plate was shaken for 2 minutes and allowed to equilibrate for 10 minutes. Luminescence was measured on a Tecan GENios microplate reader. Percent inhibition of cell viability was calculated relative to untreated control wells. All tests were performed in triplicate or quadruplicates at each concentration level. IC50 values were calculated using Prism 6.00 curve-fitting with a four parameter-logistic equation.

RIN-m = assay: Cell Titer-Glo rat insulinoma cell assay, RIN-m; format: cell-based
Description: as §1, §2, §3

[1] = test system: four rat insulinoma (RIN) cell lines, RIN-14B, RIN-m5F, RIN-m, and RIN-5; assay: Cell Titer-Glo rat insulinoma cell assay, statement for all four cell lines; format: cell-based; conditions: for cell viability at higher concentrations: cytotoxic effect; for pIC50: read-out: IC50 values, all cell lines
Description: as §1
(§4) The plate was shaken for 2 minutes and allowed to equilibrate for 10 minutes. Luminescence was measured on a Tecan GENios microplate reader. Percent inhibition of cell viability was calculated relative to untreated control wells. All tests were performed in triplicate or quadruplicates at each concentration level. IC50 values were calculated using Prism 6.00 curve-fitting with a four parameter-logistic equation.
as §4

RIN-5F = assay: Cell Titer-Glo rat insulinoma cell assay, RIN-5F; format: cell-based; conditions: cell viability after 168-192 total hours of culture
Description: as §1, §2, §3

RIN-m5F = assay: Cell Titer-Glo rat insulinoma cell assay, RIN-m5F; format: cell-based
Description: as §1, §2, §3

[2] = at least one biological assay (not specified)
[3] = test system: RIN-m5F rat insulinoma cells; assay: RNA-Seq expression analysis of JQ1 treated RIN-m5F insulinoma cells; format: cell-based; conditions: 500 nM, 24 hr; result in words
Description: As shown below, BET inhibition disrupts both oncogenic and pancreatic islet cell transcriptional profiles.
Cells were scraped and total RNA was extracted and purified using a Qiagen RNeasy Mini Kit (cat. 74104) as described in the manufacturer's protocol. […] For each sample, 4 μg of total RNA was then used in Illumina's TruSeq RNA sample preparation V2 kit. […] Libraries were sequenced on Illumina NextSeq 500 as paired-end 75-nt reads.
Sequence reads were analyzed with the TopHat—Cufflinks software pipeline. Average size of library molecules was 400 bp, therefore the—r parameter was set to […]. (Versions were: TopHat v2.0.9, Bowtie 2.1.0.0, Cufflinks v2.1.1). The rat (rn5) gene reference GTF file was obtained from Illumina iGenomes.

BRD4(2) = BRD4(2) (Homo sapiens (Human), UniProt O60885); assay: Alpha-assay binding, BRD4 site 2; conditions: for binding activity with the BRD4 site 2: result in words
BRD4(1) = BRD4(1) (Homo sapiens (Human), UniProt O60885); assay: Alpha-assay binding, BRD4 site 1; conditions: for binding activity with the BRD4 site 1: result in words
Description: The binding activity of lead compounds with the BRD4 site 1 was determined by Alpha-assay with a 12-point dose response curve.

Cc1sc2c(c1C)C(c1ccc(Cl)cc1)=N[C@@H](CC(=O)OC(C)(C)C)c1nnc(C)n1-2 [(S)-JQ1, (S)-tert-Butyl 2-(4-(4-chlorophenyl)-2,3,9-trimethyl-6H-thieno[3,2-f][1,2,4]triazolo [4,3-a][1,4]diazepin-6-yl)acetate]
pIC50 (RIN-14B; read-out: IC50 Values, RIN-14B, Example 3, Table 1, cell viability after 168-192 total hours of culture): 7.77
pIC50 (RIN-14B; read-out: IC50 Values, RIN-14B, Example 8 additional data, cell viability after 168-192 total hours of culture): 7.68
pIC50 (RIN-m; read-out: IC50 Values, RIN-m, Example 3, Table 1, cell viability after 168-192 total hours of culture): 7.47
pIC50 (RIN-m; read-out: IC50 Values, RIN-m, Example 8 additional data, cell viability after 168-192 total hours of culture): 7.53
cell viability at higher concentrations ([1]; Example 3): ~0%
cell viability at higher concentrations ([1]; Example 8): ~0%
pIC50 ([1]; Rattus norvegicus, RIN-m5F): > 7.00
pIC50 ([1]; Example 8): > 7.00
pIC50 (RIN-5F; Rattus norvegicus, read-out: IC50 Values, RIN-5F, Example 3, Table 1, duplicate data): 7.02
pIC50 (RIN-5F; Rattus norvegicus, read-out: IC50 Values, RIN-5F, Example 8 additional data, two values): 7.28
pIC50 (RIN-5F; read-out: IC50 Values, RIN-5F, Example 3, Table 1, duplicate data): 7.21
pIC50 (RIN-5F; read-out: IC50 Values, RIN-5F, Example 8 additional data, two values): 7.14
pIC50 (RIN-m5F; read-out: IC50 Values, RIN-m5F, Example 3, Table 1, cell viability after 168-192 total hours of culture): 7.51
pIC50 (RIN-m5F; read-out: IC50 Values, RIN-m5F, Example 8 additional data, cell viability after 168-192 total hours of culture): 7.29

Cc1sc2c(c1C)C(c1ccc(Cl)cc1)=NC(CC(=O)NN)c1nnc(C)n1-2 (stereo not shown) [Compound 3]
activity in at least one biological assay [2]: showed activity

Cc1sc2c(c1C)C(c1ccc(Cl)cc1)=NC(CC(=O)OC(C)(C)C)c1nnc(C)n1-2 (stereo not shown) [JQ1, tert-Butyl 2-(4-(4-chlorophenyl)-2,3,9-trimethyl-6H-thieno[3,2-f][1,2,4]triazolo[4,3-a][1,4]diazepin-6-yl)acetate]
genes with decreased versus increased expression [3]: larger number of genes with decreased expression as compared to increased expression

Cc1sc2c(c1C)C(c1ccc(Cl)cc1)=N[C@@H](CC(=O)N/N=C/c1ncc[nH]1)c1nnc(C)n1-2 [(S)-JQ6]
binding activity with the BRD4 site 2 (BRD4(2)): excellent binding activity
binding activity with the BRD4 site 1 (BRD4(1)): excellent binding activity

CC(=O)O[C@H]1C(=O)[C@@]2(C)[C@H]([C@H](OC(=O)c3ccccc3)[C@]3(O)C[C@H](OC(=O)[C@H](O)[C@@H](NC(=O)c4ccccc4)c4ccccc4)C(C)=C1C3(C)C)[C@]1(OC(C)=O)CO[C@@H]1C[C@@H]2O [Paclitaxel, reference compound]
pIC50 (RIN-14B; Example 3, Table 1, cell viability after 168-192 total hours of culture, read-out: IC50 Values, RIN-14B): 8.88
pIC50 (RIN-m; Example 3, Table 1, cell viability after 168-192 total hours of culture, read-out: IC50 Values, RIN-m): 9.14
pIC50 (RIN-5F; Example 3, Table 1, duplicate data, read-out: IC50 Values, RIN-5F): 8.50
pIC50 (RIN-5F; Rattus norvegicus, Example 3, Table 1, duplicate data, read-out: IC50 Values, RIN-5F): 8.79
pIC50 (RIN-m5F; Example 3, Table 1, cell viability after 168-192 total hours of culture, read-out: IC50 Values, RIN-m5F): 9.37

Cc1sc2c(c1C)C(c1ccc(Cl)cc1)=N[C@@H](CC(=O)NCCCN1CCN(C)CC1)c1nnc(C)n1-2 (stereo in doubt) [(S)-JQ35]
pIC50 (RIN-14B; Example 8 additional data, cell viability after 168-192 total hours of culture, read-out: IC50 Values, RIN-14B): 6.68
binding activity with the BRD4 site 2 (BRD4(2)): excellent binding activity
pIC50 (RIN-m; Example 8 additional data, cell viability after 168-192 total hours of culture, read-out: IC50 Values, RIN-m): 6.82
cell viability at higher concentrations ([1]; Example 8): ~0%
pIC50 ([1]; Rattus norvegicus, RIN-m5F, Example 8): > 6.70
pIC50 (RIN-5F; Example 8 additional data, two values, read-out: IC50 Values, RIN-5F): 6.67
pIC50 (RIN-5F; Rattus norvegicus, Example 8 additional data, two values, read-out: IC50 Values, RIN-5F): 6.74
binding activity with the BRD4 site 1 (BRD4(1)): excellent binding activity
pIC50 (RIN-m5F; Example 8 additional data, cell viability after 168-192 total hours of culture, read-out: IC50 Values, RIN-m5F): 6.73

Cc1sc2c(c1C)C(c1ccc(Cl)cc1)=N[C@@H](CC(=O)NCCN1CCN(C)CC1)c1nnc(C)n1-2 [(S)-JQ13]
binding activity with the BRD4 site 2 (BRD4(2)): excellent binding activity
binding activity with the BRD4 site 1 (BRD4(1)): excellent binding activity

Cc1sc2c(c1C)C(c1ccc(Cl)cc1)=N[C@@H](CC(=O)NCCN1CCOCC1)c1nnc(C)n1-2 (stereo in doubt) [(S)-JQ33]
pIC50 (BRD4(2); 12-point dose response curve, read-out: Bio-assay IC50 BRD4(2)): 7.53
binding activity with the BRD4 site 2 (BRD4(2)): excellent binding activity
pIC50 (BRD4(1); 12-point dose response curve, read-out: Bio-assay IC50 BRD4(1)): 7.07
binding activity with the BRD4 site 1 (BRD4(1)): excellent binding activity

Cc1sc2c(c1C)C(c1ccc(Cl)cc1)=N[C@@H](CC(=O)NCCc1cnc[nH]1)c1nnc(C)n1-2 [(S)-JQ8]
binding activity with the BRD4 site 2 (BRD4(2)): excellent binding activity
binding activity with the BRD4 site 1 (BRD4(1)): excellent binding activity
